Test results taken from patent publication US20240270762A1, “PENICILLIN-BINDING PROTEIN INHIBITORS” (priority 2021, published 2024).
In brackets after ≈: the same amount, converted by molar mass.

What was measured:
[1] = target: T1, PBP3 from Acinetobacter baumannii (ATCC 19606) (Acinetobacter baumannii, UniProt A0ABX6CK25); test: Bocillin-FL fluorescence polarization competition binding, A. baumannii PBP3; details: fluorescence polarization competition binding assay using Bocillin-FL; read-out: A. baumannii PBP3 Potency
T1 sequence (A0ABX6CK25 64-610): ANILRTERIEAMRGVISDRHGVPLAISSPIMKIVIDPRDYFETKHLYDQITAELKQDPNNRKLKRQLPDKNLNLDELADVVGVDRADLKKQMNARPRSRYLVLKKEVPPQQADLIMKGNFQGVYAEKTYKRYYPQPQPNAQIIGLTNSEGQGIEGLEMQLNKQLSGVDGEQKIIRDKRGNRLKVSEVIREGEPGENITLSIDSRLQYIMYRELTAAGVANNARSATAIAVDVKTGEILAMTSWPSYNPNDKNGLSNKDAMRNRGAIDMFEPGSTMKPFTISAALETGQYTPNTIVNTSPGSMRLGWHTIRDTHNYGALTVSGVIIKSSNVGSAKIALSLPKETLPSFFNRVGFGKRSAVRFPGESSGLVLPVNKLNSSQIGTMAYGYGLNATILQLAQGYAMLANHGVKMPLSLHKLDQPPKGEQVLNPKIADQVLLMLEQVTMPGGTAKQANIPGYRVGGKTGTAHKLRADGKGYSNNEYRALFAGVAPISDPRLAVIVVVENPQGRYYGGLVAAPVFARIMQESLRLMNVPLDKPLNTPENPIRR
Summary of the method: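 Purified PBP was preincubated with inhibitor (E. coli PBP3 1.5 μM, 30 min; P. aeruginosa PBP3 0.75 μM, A. baumannii PBP3 0.2 μM and PBP1a 1 μM, 15 min), then Bocillin-FL (0.1 μM; 0.05 μM for PBP1a) added and FP read up to 60 min. EC50 = 50% loss of bound probe.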

[2] = test system: P. aeruginosa ATCC 27853; test: microbe, parasite or virus in culture; type: cell-based; details: Pseudomonas aeruginosa, ATCC27853, read-out: Minimum inhibitory concentration, P. aeruginosa ATCC 27853
[3] = test system: A. baumannii 1258916; test: microbe, parasite or virus in culture; type: cell-based, Acinetobacter baumannii; details: Acinetobacter baumannii, 1258916, read-out: MIC, A. baumannii 1258916
[4] = test system: B. thailandensis ATCC 700388; test: microbe, parasite or virus in culture; type: cell-based; details: Burkholderia thailandensis, ATCC700388, read-out: Minimum inhibitory concentration (MIC), B. thailandensis ATCC 700388

| SMILES | IC50 [1] | MIC [2] | MIC [3] | MIC [4] |
| --- | --- | --- | --- | --- |
| O=C(O)c1c(F)ccc2c1OB(O)[C@@H](NC(=O)C(NC(=O)N1CCN(C3CCN(S(=O)(=O)c4cccc(O)c4)CC3)C(=O)C1=O)c1cc(F)c(O)c(O)c1Cl)C2 (stereo partly drawn) [Example 428, (3R)-3-(2-(2-chloro-5-fluoro-3,4-dihydroxyphenyl)-2-(4-(1-((3-hydroxyphenyl)sulfonyl)piperidin-4-yl)-2,3-dioxopiperazine-1-carboxamido)acetamido)-7-fluoro-2-hydroxy-3,4-dihydro-2H-benzo[e][1,2]oxaborinine-8-carboxylic acid] | < 10 µM | 2 to 4 mg/L (≈ 2.43 to 4.87 µM) | < 1 mg/L | > 128 mg/L |
| O=C(O)c1c(F)ccc2c1OB(O)[C@@H](NC(=O)C(NC(=O)N1CCN(C3CCN(S(=O)(=O)c4ccc(O)cc4)CC3)C(=O)C1=O)c1cc(F)c(O)c(O)c1Cl)C2 (stereo partly drawn) [Example 429, (3R)-3-(2-(2-chloro-5-fluoro-3,4-dihydroxyphenyl)-2-(4-(1-((4-hydroxyphenyl)sulfonyl)piperidin-4-yl)-2,3-dioxopiperazine-1-carboxamido)acetamido)-7-fluoro-2-hydroxy-3,4-dihydro-2H-benzo[e][1,2]oxaborinine-8-carboxylic acid] | < 10 µM | 2 to 4 mg/L (≈ 2.43 to 4.87 µM) | < 1 mg/L | 8 to 16 mg/L (≈ 9.73 to 19.5 µM) |
| O=C(NCCCN1CCN(C(=O)NC(C(=O)N[C@H]2Cc3ccc(F)c(C(=O)O)c3OB2O)c2cc(F)c(O)c(O)c2Cl)C(=O)C1=O)c1ccnc(F)c1 (stereo partly drawn) [Example 466, (3R)-3-(2-(2-chloro-5-fluoro-3,4-dihydroxyphenyl)-2-(4-(3-(2-fluoroisonicotinamido)propyl)-2,3-dioxopiperazine-1-carboxamido)acetamido)-7-fluoro-2-hydroxy-3,4-dihydro-2H-benzo[e][1,2]oxaborinine-8-carboxylic acid] | < 10 µM | 2 to 4 mg/L (≈ 2.62 to 5.24 µM) | 2 to 4 mg/L (≈ 2.62 to 5.24 µM) | 2 to 4 mg/L (≈ 2.62 to 5.24 µM) |
| O=C(O)c1c(F)ccc2c1OB(O)[C@@H](NC(=O)C(NC(=O)N1CCN(C3CCN(C(=O)Cc4cccc(O)c4)CC3)C(=O)C1=O)c1cc(F)c(O)c(O)c1Cl)C2 (stereo partly drawn) [Example 474, (3R)-3-(2-(2-chloro-5-fluoro-3,4-dihydroxyphenyl)-2-(4-(1-(2-(3-hydroxyphenyl)acetyl)piperidin-4-yl)-2,3-dioxopiperazine-1-carboxamido)acetamido)-7-fluoro-2-hydroxy-3,4-dihydro-2H-benzo[e][1,2]oxaborinine-8-carboxylic acid] | < 10 µM | 2 to 4 mg/L (≈ 2.5 to 5 µM) | < 1 mg/L | 2 to 4 mg/L (≈ 2.5 to 5 µM) |
| O=C(O)c1c(F)ccc2c1OB(O)[C@@H](NC(=O)C(NC(=O)N1CCN(CC3CCN(C(=O)c4cccc(O)c4)CC3)C(=O)C1=O)c1cc(F)c(O)c(O)c1Cl)C2 (stereo partly drawn) [Example 475, (3R)-3-(2-(2-chloro-5-fluoro-3,4-dihydroxyphenyl)-2-(4-((1-(3-hydroxybenzoyl)piperidin-4-yl)methyl)-2,3-dioxopiperazine-1-carboxamido)acetamido)-7-fluoro-2-hydroxy-3,4-dihydro-2H-benzo[e][1,2]oxaborinine-8-carboxylic acid] | < 10 µM | 2 to 4 mg/L (≈ 2.5 to 5 µM) | < 1 mg/L | < 1 mg/L |
| O=C(O)c1c(F)ccc2c1OB(O)[C@@H](NC(=O)C(NC(=O)N1CCN(C3CCN(C(=O)c4ccc(O)cc4O)CC3)C(=O)C1=O)c1cc(F)c(O)c(O)c1Cl)C2 (stereo partly drawn) [Example 476, (3R)-3-(2-(2-chloro-5-fluoro-3,4-dihydroxyphenyl)-2-(4-(1-(2,4-dihydroxybenzoyl)piperidin-4-yl)-2,3-dioxopiperazine-1-carboxamido)acetamido)-7-fluoro-2-hydroxy-3,4-dihydro-2H-benzo[e][1,2]oxaborinine-8-carboxylic acid] | < 10 µM | < 1 mg/L | < 1 mg/L | < 1 mg/L |
| O=C(O)c1c(F)ccc2c1OB(O)[C@@H](NC(=O)C(NC(=O)N1CCN(CC3CCN(C(=O)Nc4cccc(O)c4)CC3)C(=O)C1=O)c1cc(F)c(O)c(O)c1Cl)C2 (stereo partly drawn) [Example 477, (3R)-3-(2-(2-chloro-5-fluoro-3,4-dihydroxyphenyl)-2-(4-((1-((3-hydroxyphenyl)carbamoyl)piperidin-4-yl)methyl)-2,3-dioxopiperazine-1-carboxamido)acetamido)-7-fluoro-2-hydroxy-3,4-dihydro-2H-benzo[e][1,2]oxaborinine-8-carboxylic acid] | < 10 µM | < 1 mg/L | < 1 mg/L | < 1 mg/L |
| O=C(O)c1c(F)ccc2c1OB(O)[C@@H](NC(=O)C(NC(=O)N1CCN(C3CCN(C(=O)Nc4cccc(O)c4F)CC3)C(=O)C1=O)c1cc(F)c(O)c(O)c1Cl)C2 (stereo partly drawn) [Example 478, (3R)-3-(2-(2-chloro-5-fluoro-3,4-dihydroxyphenyl)-2-(4-(1-((2-fluoro-3-hydroxyphenyl)carbamoyl)piperidin-4-yl)-2,3-dioxopiperazine-1-carboxamido)acetamido)-7-fluoro-2-hydroxy-3,4-dihydro-2H-benzo[e][1,2]oxaborinine-8-carboxylic acid] | < 10 µM | 2 to 4 mg/L (≈ 2.44 to 4.88 µM) | < 1 mg/L | 2 to 4 mg/L (≈ 2.44 to 4.88 µM) |
